Assay results from patent US8293736B2, “Purine compounds selective for PI3K P110 delta, and methods of use” (F. Hoffmann la Roche AG, priority 2010, dated 2012).
pKi: −log10 of the molar value.

How the values were obtained:
p110 delta = target: T1, p110 delta (Homo sapiens, UniProt O00329); assay: PI3K isoform inhibition assay (fluorescence polarization), p110 delta; assay type: biochemical; settings: Ki apparent, Morrison equation; 25 μM ATP, 10 μM PIP2
T1 construct: purchased Upstate Group, Millipore; Dundee, UK
T1 sequence (O00329 whole entry, canonical isoform): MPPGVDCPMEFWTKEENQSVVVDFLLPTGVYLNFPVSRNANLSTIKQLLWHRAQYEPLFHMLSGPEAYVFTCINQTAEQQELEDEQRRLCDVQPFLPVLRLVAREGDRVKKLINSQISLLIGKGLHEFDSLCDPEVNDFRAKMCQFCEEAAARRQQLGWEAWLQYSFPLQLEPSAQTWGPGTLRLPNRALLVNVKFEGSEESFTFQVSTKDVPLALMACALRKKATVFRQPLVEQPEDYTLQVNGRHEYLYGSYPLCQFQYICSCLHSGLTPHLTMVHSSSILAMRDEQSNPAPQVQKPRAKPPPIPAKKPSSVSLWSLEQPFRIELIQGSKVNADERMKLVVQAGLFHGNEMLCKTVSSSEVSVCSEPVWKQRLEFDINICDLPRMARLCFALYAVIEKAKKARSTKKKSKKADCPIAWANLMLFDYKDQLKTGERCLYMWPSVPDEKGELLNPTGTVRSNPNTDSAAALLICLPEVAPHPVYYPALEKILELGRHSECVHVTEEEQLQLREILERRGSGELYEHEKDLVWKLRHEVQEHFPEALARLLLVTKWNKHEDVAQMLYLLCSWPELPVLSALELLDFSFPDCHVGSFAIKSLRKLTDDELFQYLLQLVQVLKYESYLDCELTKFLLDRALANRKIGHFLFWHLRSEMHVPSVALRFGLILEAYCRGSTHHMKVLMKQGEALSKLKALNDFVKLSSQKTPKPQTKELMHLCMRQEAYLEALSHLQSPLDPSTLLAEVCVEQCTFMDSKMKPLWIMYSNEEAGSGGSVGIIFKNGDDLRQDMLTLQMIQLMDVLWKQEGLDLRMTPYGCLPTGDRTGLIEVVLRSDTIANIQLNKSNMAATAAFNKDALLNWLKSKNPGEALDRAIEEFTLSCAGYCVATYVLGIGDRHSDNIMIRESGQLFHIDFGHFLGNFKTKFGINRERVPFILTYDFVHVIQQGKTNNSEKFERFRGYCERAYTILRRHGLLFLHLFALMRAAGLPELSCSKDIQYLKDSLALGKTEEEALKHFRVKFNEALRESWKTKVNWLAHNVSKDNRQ
T1 sequence (P27986 whole entry partner, canonical isoform): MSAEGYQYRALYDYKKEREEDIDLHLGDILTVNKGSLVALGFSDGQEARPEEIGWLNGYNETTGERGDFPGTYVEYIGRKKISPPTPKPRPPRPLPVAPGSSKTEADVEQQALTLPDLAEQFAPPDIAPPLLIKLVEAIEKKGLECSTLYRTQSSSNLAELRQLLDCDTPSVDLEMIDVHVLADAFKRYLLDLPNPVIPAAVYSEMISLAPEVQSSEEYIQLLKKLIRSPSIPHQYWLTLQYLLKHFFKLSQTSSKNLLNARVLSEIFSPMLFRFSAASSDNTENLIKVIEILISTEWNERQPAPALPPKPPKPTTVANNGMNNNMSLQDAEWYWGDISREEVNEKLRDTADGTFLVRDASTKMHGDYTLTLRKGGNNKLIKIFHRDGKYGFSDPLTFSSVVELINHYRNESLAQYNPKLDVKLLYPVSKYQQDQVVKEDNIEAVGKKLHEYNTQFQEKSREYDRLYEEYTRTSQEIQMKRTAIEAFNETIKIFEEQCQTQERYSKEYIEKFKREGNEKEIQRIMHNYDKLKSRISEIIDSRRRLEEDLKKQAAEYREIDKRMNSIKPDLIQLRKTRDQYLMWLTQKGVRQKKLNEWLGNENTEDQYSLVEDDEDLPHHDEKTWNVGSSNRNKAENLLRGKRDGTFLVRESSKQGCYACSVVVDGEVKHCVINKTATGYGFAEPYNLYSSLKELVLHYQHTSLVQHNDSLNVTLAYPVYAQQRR
Protocol: (§1) Determination of the activity of PI3 kinase activity of Formula I compounds is possible by a number of direct and indirect detection methods.
(§2) PI3K enzymatic activity was assayed by measuring the amount of product phosphatidylinositol 3,4,5-phosphate (PIP3) formed from substrate 4,5 phosphatidylinositol 4,5-phosphate (PIP2) using a fluorescence polarization displacement assay. The decrease in fluorescence polarization of a fluorescent PIP3 probe is measured as it is displaced from a PIP3-binding protein GRP-1 detector by PI3K-catalyzed product. […] The kinase reactions were initiated by the addition of 40 ng/mL p110α/p85α, 300 ng/mL p110β/p85α, 40 ng/mL p110γ, or 40 ng/mL p110δ/p85α (Upstate Group, Millipore; Dundee, UK), and 10 μM PIP2 (Echelon Biosciences) to the wells. […] After 60 minutes of incubation at room temperature to allow equilibration of labeled and unlabeled PIP3 binding, the parallel and perpendicular components of the fluorescence emissions from each sample were measured at an excitation wavelength of 530 nm and an emission wavelength of 590 nm using an Envision fluorescent plate reader with a rhodamine filter (PerkinElmer Life and Analytical Sciences; Wellesley, Mass.). The assay is capable of detecting 0.1-2.0 μM PIP3 product. The Ki apparent values were obtained by fitting the dose-dependent inhibition data to the Morrison equation for tight-binding, competitive inhibitors. Reference: R. A. Copeland, Enzymes. “A Practical Introduction to Structure, Mechanism and Data Analysis”.
The Formula I compound was serially diluted in 100% DMSO. The kinase reaction was incubated for 1 h at room temperature, and the reaction was terminated by the addition of PBS. IC50 values were subsequently determined using sigmoidal dose-response curve fit (variable slope). […]

p110 alpha = target: T2, p110 alpha (Homo sapiens, UniProt P42336); assay: PI3K isoform inhibition assay (fluorescence polarization), p110 alpha; assay type: biochemical; settings: delta/alpha selectivity ratio
T2 construct: purchased Upstate Group, Millipore; Dundee, UK
T2 sequence (P42336 whole entry, species assumed, canonical isoform): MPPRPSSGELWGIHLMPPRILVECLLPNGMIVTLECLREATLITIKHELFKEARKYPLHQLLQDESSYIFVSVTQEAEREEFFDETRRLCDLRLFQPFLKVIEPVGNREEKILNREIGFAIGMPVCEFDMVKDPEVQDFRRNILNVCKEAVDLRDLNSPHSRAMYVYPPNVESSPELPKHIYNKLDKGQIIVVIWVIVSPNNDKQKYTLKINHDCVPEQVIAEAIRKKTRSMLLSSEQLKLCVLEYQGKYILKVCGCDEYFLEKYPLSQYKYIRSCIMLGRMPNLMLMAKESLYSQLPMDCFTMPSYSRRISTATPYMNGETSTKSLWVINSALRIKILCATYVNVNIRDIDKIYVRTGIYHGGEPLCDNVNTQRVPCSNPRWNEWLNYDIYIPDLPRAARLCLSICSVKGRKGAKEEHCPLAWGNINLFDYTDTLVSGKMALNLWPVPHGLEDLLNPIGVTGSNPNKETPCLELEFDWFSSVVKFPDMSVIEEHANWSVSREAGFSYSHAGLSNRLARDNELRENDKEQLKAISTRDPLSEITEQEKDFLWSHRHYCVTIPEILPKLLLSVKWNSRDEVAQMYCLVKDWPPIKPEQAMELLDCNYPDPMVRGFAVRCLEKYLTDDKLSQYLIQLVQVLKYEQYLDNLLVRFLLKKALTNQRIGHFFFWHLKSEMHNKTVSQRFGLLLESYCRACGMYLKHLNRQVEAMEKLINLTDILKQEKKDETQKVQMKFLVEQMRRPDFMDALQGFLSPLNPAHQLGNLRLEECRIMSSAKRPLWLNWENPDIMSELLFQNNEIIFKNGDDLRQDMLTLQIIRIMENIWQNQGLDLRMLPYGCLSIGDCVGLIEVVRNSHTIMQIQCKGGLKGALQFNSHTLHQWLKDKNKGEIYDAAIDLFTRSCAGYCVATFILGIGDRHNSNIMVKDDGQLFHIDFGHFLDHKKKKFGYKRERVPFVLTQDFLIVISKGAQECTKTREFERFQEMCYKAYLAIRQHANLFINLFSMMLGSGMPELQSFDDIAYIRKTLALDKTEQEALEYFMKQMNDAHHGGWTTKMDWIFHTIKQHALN
T2 sequence (P27986 whole entry partner, species assumed, canonical isoform): as the sequence (P27986 whole entry partner, canonical isoform) above
Protocol: as §1, §2
The same protocol may be used to establish Ki values for p110α (alpha) PI3K binding.
The four Class I PI 3-kinases are cloned into baculovirus vectors as follows: […]

| Structure (SMILES) | pKi (p110 delta) | Ki p110 alpha/ Ki p110 delta (p110 alpha) |
| --- | --- | --- |
| CCc1nc2ccccc2n1-c1nc(N2CCOCC2)c2nc(OC3CCN(C(C)=O)CC3)n(C)c2n1 [Compound 102, 1-(4-(2-(2-ethyl-1H-benzo[d]imidazol-1-yl)-9-methyl-6-morpholino-9H-purin-8-yloxy)piperidin-1-yl)ethanone] | 8.99 | 81 |
| CO[C@@H](C)c1nc2ccccc2n1-c1nc(N2CCOCC2)c2nc(OC3CN(C(=O)C(C)C)C3)n(C)c2n1 [Compound 141, (S)-1-(3-(2-(2-(1-methoxyethyl)-1H-benzo[d]imidazol-1-yl)-9-methyl-6-morpholino-9H-purin-8-yloxy)azetidin-1-yl)-2-methylpropan-1-one] | 9.08 | 54 |
| CC(C)C(=O)N1CC(Oc2nc3c(N4CCOCC4)nc(-n4c(CCO)nc5ccccc54)nc3n2C)C1 [Compound 138, 1-(3-(2-(2-(2-hydroxyethyl)-1H-benzo[d]imidazol-1-yl)-9-methyl-6-morpholino-9H-purin-8-yloxy)azetidin-1-yl)-2-methylpropan-1-one] | 8.41 | 68 |
| CCc1nc2ccccc2n1-c1nc(N2CCOCC2)c2nc(OC3CN(C(=O)C4C[C@@H]4F)C3)n(C)c2n1 (stereo partly drawn) [Compound 157, (3-(2-(2-ethyl-1H-benzo[d]imidazol-1-yl)-9-methyl-6-morpholino-9H-purin-8-yloxy)azetidin-1-yl)((2S)-2-fluorocyclopropyl)methanone] | 9.34 | 104 |
| CO[C@@H](C)c1nc2ccccc2n1-c1nc(N2CCOCC2)c2nc(OC3CN(C4CCS(=O)(=O)CC4)C3)n(C)c2n1 [Compound 143, (S)-4-(2-(2-(1-methoxyethyl)-1H-benzo[d]imidazol-1-yl)-9-methyl-8-(1-(1,1-dioxo-tetrahydro-2H-thiopyran-4-yl)azetidin-3-yloxy)-9H-purin-6-yl)morpholine] | 8.80 | 50 |
| CCc1nc2ccccc2n1-c1nc(N2CCOCC2)c2nc(OC3CCN(C4CCC(O)CC4)CC3)n(C)c2n1 (single isomer, unassigned) [Compound 130, 4-(4-(2-(2-ethyl-1H-benzo[d]imidazol-1-yl)-9-methyl-6-morpholino-9H-purin-8-yloxy)piperidin-1-yl)cyclohexanol] | 9.23 | 151 |
| Cc1nc2ccccc2n1-c1nc(N2CCOCC2)c2nc(OC3CCN(C4CCOCC4)CC3)n(C)c2n1 [Compound 127, 4-(9-methyl-2-(2-methyl-1H-benzo[d]imidazol-1-yl)-8-(1-(tetrahydro-2H-pyran-4-yl)piperidin-4-yloxy)-9H-purin-6-yl)morpholine] | 9.60 | 105 |
| CO[C@H](C)c1nc2ccccc2n1-c1nc(N2CCOCC2)c2nc(OC3CN(C4CCS(=O)(=O)CC4)C3)n(C)c2n1 [Compound 142, (R)-4-(2-(2-(1-methoxyethyl)-1H-benzo[d]imidazol-1-yl)-9-methyl-8-(1-(1,1-dioxo-tetrahydro-2H-thiopyran-4-yl)azetidin-3-yloxy)-9H-purin-6-yl)morpholine] | 8.79 | 96 |
| CCc1nc2ccccc2n1-c1nc(N2CCOCC2)c2nc(OC3CCN(C4COC4)CC3)n(C)c2n1 [Compound 109, 4-(2-(2-ethyl-1H-benzo[d]imidazol-1-yl)-9-methyl-8-(1-(oxetan-3-yl)piperidin-4-yloxy)-9H-purin-6-yl)morpholine] | 8.94 | 32.2 |
| CCc1nc2ccccc2n1-c1nc(N2CCOCC2)c2nc(OC3CN(C(=O)C4(C#N)CC4)C3)n(C)c2n1 [Compound 150, 1-(3-(2-(2-ethyl-1H-benzo [d]imidazol-1-yl)-9-methyl-6-morpholino-9H-purin-8-yloxy)azetidine-1-carbonyl) cyclopropanecarbonitrile] | 8.54 | 30 |
| CO[C@H](C)c1nc2ccccc2n1-c1nc(N2CCOCC2)c2nc(OC3CN(C(=O)C(C)C)C3)n(C)c2n1 [Compound 140, (R)-1-(3-(2-(2-(1-methoxyethyl)-1H-benzo[d]imidazol-1-yl)-9-methyl-6-morpholino-9H-purin-8-yloxy)azetidin-1-yl)-2-methylpropan-1-one] | 8.82 | 64 |
| CCc1nc2ccccc2n1-c1nc(N2CCOCC2)c2nc(OC3CCNCC3)n(C)c2n1 [Compound 124, 4-(2-(2-ethyl-1H-benzo[d]imidazol-1-yl)-9-methyl-8-(piperidin-4-yloxy)-9H-purin-6-yl)morpholine] | 9.04 | 188 |
| CC(C)C(=O)N1CC(Oc2nc3c(N4CCOCC4)nc(-n4c(C(C)(F)F)nc5ccccc54)nc3n2C)C1 [Compound 132, 1-(3-(2-(2-(1,1-difluoroethyl)-1H-benzo[d]imidazol-1-yl)-9-methyl-6-morpholino-9H-purin-8-yloxy)azetidin-1-yl)-2-methylpropan-1-one] | 9.03 | 31 |
| CCc1nc2ccccc2n1-c1nc(N2CCOCC2)c2nc(OC3CN(C4CCS(=O)(=O)CC4)C3)n(C)c2n1 [Compound 114, 4-(2-(2-ethyl-1H-benzo[d]imidazol-1-yl)-9-methyl-8-(1-(1,1-dioxo-tetrahydro-2H-thiopyran-4-yl)azetidin-3-yloxy)-9H-purin-6-yl)morpholine] | 8.90 | 163 |
| CC(C)C(=O)N1CC(Oc2nc3c(N4CCOCC4)nc(-c4c(F)ccc5[nH]ccc45)nc3n2C)C1 [Compound 126, 1-(3-(2-(5-fluoro-1H-indol-4-yl)-9-methyl-6-morpholino-9H-purin-8-yloxy)azetidin-1-yl)-2-methylpropan-1-one] | 9.00 | 88 |
| CC(C)c1nc2ccccc2n1-c1nc(N2CCOCC2)c2nc(OC3CN(C4CCOCC4)C3)n(C)c2n1 [Compound 104, 4-(2-(2-isopropyl-1H-benzo[d]imidazol-1-yl)-9-methyl-8-(1-(tetrahydro-2H-pyran-4-yl)azetidin-3-yloxy)-9H-purin-6-yl)morpholine] | 9.19 | 202 |
| CCc1nc2ccccc2n1-c1nc(N2CCOCC2)c2nc(OC3CN(C(=O)[C@H](C)OC)C3)n(C)c2n1 [Compound 120, (S)-1-(3-(2-(2-ethyl-1H-benzo[d]imidazol-1-yl)-9-methyl-6-morpholino-9H-purin-8-yloxy)azetidin-1-yl)-2-methoxypropan-1-one] | 8.91 | 93 |
| CCc1nc2ccccc2n1-c1nc(N2CCOCC2)c2nc(OC3CCN(C(=O)C(C)(C)C)CC3)n(C)c2n1 [Compound 113, 1-(4-(2-(2-ethyl-1H-benzo[d]imidazol-1-yl)-9-methyl-6-morpholino-9H-purin-8-yloxy)piperidin-1-yl)-2,2-dimethylpropan-1-one] | 9.06 | 178 |
| CN(C)c1nc2ccccc2n1-c1nc(N2CCOCC2)c2nc(OC3CN(C4CCS(=O)(=O)CC4)C3)n(C)c2n1 [Compound 137, N,N-dimethyl-1-(9-methyl-6-morpholino-8-(1-(1,1-dioxo-tetrahydro-2H-thiopyran-4-yl)azetidin-3-yloxy)-9H-purin-2-yl)-1H-benzo[d] imidazol-2-amine] | 8.33 | 121 |
| CCc1nc2ccccc2n1-c1nc(N2CCOCC2)c2nc(OC3CN(C(=O)C4(C)CC4)C3)n(C)c2n1 [Compound 145, (3-(2-(2-ethyl-1H-benzo [d]imidazol-1-yl)-9-methyl-6-morpholino-9H-purin-8-yloxy)azetidin-1-yl)(1-methylcyclopropyl)methanone] | 9.08 | 100 |
| CCc1nc2ccccc2n1-c1nc(N2CCOCC2)c2nc(OC3CCN(C(=O)C(C)(C)O)CC3)n(C)c2n1 [Compound 112, 1-(4-(2-(2-ethyl-1H-benzo[d]imidazol-1-yl)-9-methyl-6-morpholino-9H-purin-8-yloxy)piperidin-1-yl)-2-hydroxy-2-methylpropan-1-one] | 8.85 | 122 |
| CCc1nc2ccccc2n1-c1nc(N2CCOCC2)c2nc(OC3CN(C(=O)C4(COC)CC4)C3)n(C)c2n1 [Compound 156, (3-(2-(2-ethyl-1H-benzo[d]imidazol-1-yl)-9-methyl-6-morpholino-9H-purin-8-yloxy)azetidin-1-yl)(1-(methoxymethyl)cyclopropyl) methanone] | 9.27 | 76 |
| CCc1nc2ccccc2n1-c1nc(N2CCOCC2)c2nc(OC3CN(C(=O)[C@@H]4CC45CCC5)C3)n(C)c2n1 [Compound 153, (R)-(3-(2-(2-ethyl-1H-benzo [d]imidazol-l-yl)-9-methyl-6-morpholino-9H-purin-8-yloxy)azetidin-1-yl) (spiro[2.3]hexan-1-yl) methanone] | 9.13 | 159 |
